Experimental data reported in US8088763B2 (priority 2004, dated 2012).

Tests used:
5HT-uptake = molecular target: T1, 5HT-uptake (Rattus norvegicus, UniProt P31652); assay: biochemical; settings: for inhibition at 10 µM: read-out: 5HT-uptake [10 μM], % inhibition
T1 construct: synaptosomes were freshly isolated from areas of rats' brains

NA-uptake = NA-uptake (Rattus norvegicus, UniProt Q63380); assay: biochemical; settings: for inhibition at 10 µM: read-out: NA-uptake [10 μM], % inhibition
NA-uptake, sequence (Q63380 1-617): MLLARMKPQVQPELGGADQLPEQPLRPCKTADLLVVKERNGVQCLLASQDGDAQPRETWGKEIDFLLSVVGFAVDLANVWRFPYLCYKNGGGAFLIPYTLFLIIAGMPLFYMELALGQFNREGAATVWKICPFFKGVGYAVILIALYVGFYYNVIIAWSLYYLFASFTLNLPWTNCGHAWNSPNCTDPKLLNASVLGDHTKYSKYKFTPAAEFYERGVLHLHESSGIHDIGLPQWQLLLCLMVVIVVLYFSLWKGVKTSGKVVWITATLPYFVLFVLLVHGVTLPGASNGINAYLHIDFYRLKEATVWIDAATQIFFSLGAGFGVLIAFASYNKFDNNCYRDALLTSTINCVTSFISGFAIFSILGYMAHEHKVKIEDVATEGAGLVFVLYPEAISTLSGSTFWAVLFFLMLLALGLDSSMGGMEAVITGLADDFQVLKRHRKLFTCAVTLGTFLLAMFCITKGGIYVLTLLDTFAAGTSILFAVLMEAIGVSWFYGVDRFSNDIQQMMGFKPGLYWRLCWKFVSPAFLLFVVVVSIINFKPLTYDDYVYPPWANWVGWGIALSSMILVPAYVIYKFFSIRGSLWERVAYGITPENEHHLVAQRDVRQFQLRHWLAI

T1 sequence (P31652 whole entry): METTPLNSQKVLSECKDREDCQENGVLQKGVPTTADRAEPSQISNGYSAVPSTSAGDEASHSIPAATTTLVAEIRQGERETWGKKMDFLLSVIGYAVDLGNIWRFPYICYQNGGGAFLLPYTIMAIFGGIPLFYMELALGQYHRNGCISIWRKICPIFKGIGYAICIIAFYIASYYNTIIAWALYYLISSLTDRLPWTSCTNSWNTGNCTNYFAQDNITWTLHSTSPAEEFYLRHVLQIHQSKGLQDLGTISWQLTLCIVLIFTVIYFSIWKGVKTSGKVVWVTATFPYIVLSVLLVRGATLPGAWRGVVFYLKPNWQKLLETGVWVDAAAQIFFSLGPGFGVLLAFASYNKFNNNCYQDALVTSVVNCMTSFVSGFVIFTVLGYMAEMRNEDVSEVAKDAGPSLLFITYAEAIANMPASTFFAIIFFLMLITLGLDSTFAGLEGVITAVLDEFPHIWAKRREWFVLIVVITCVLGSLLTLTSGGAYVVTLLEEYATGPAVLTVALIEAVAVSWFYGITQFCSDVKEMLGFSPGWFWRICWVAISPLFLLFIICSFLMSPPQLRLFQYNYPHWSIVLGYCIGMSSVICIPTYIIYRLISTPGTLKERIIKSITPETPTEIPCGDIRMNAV

Row | SMILES | inhibition at 10 µM (5HT-uptake) [%] | inhibition at 10 µM (NA-uptake) [%] | 5HT-uptake [10 μM], % inhibition (5HT-uptake) [%] | NA-uptake [10 μM], % inhibition (NA-uptake) [%]
1 | CC1CCN(C(=O)CCC(=O)NC2CCC(Cc3ccc(Cl)cc3)(N(C)C)CC2)CC1 (centres unmarked) [Example 60, N-[4-(4-chloro-benzyl)-4-dimethylamino-cyclohexyl]-4-(4-methyl-piperidin-1-yl)-4-oxobutyramide] | 93 | 71 |  | 
2 | Cc1ccc(CC2(N(C)C)CCC(NC(=O)CCC(=O)NC(C)C(=O)OC(C)(C)C)CC2)cc1 (centres unmarked) [Example 61, 2-{3-[4-dimethylamino-4-(4-methyl-benzyl)-cyclohexylcarbamoyl]-propionylamino}-propanoic acid-tert-butylester] | 92 | 93 |  | 
3 | CN(C)C1(Cc2ccccc2)CCC(NC(=O)CCCC(=O)N2CCN(C3CCCCCC3)CC2)CC1 (centres unmarked) [Example 62, 5-(4-cycloheptyl-piperazin-1-yl)-5-oxo-valeric acid (4-benzyl-4-dimethylamino-cyclohexyl)-amide] | 100 | 86 |  | 
4 | CN(C)C1(Cc2ccc(Cl)cc2)CCC(NC(=O)CCC(=O)N2CCC3(CC2)OCCO3)CC1 (centres unmarked) [Example 65, N-[4-(4-chloro-benzyl)-4-dimethylamino-cyclohexyl]-4-(1,4-dioxa-8-aza-spiro[4.5]dec-8-yl)-4-oxo-butyramide] | 92 | 84 |  | 
5 | Cc1cccc(CC2(N(C)C)CCC(NC(=O)CCC(=O)N3CCC(C(=O)c4ccccc4)CC3)CC2)c1 (centres unmarked) [Example 67, 4-(4-benzoyl-piperidin-1-yl)-N-[4-dimethylamino-4-(3-methyl-benzyl)-cyclohexyl]-4-oxo-butyramide] | 98 | 96 |  | 
6 | COc1ccc(CNC(=O)CCC(=O)NC2CCC(Cc3ccc(Cl)cc3)(N(C)C)CC2)c(OC)c1 (centres unmarked) [Example 68, N-[4-(4-chloro-benzyl)-4-dimethylamino-cyclohexyl]-N′-(2,4-dimethoxy-benzyl)-succinamide] | 98 | 85 |  | 
7 | CCN(Cc1ccncc1)C(=O)CCC(=O)NC1CCC(Cc2ccc(Cl)cc2)(N(C)C)CC1 (centres unmarked) [Example 70, N-[4-(4-chloro-benzyl)-4-dimethylamino-cyclohexyl]-N′-ethyl-N′-pyridin-4-ylmethyl-succinamide] | 93 | 96 |  | 
8 | COc1ccc(CCN(C)C(=O)CCC(=O)NC2CCC(Cc3cccc(C)c3)(N(C)C)CC2)cc1OC (centres unmarked) [Example 71, N-[2-(3,4-dimethoxy-phenyl)-ethyl]-N′-[4-dimethylamino-4-(3-methyl-benzyl)-cyclohexyl]-N-methyl-succinamide] | 92 | 94 |  | 
9 | CN(Cc1cccnc1)C(=O)CCC(=O)NC1CCC(Cc2ccc(Cl)cc2)(N(C)C)CC1 (centres unmarked) [Example 72, N-[4-(4-chloro-benzyl)-4-dimethylamino-cyclohexyl]-N′-methyl-N′-pyridin-3-ylmethyl-succinamide] | 95 | 70 |  | 
10 | CN(C)C1(Cc2cccc(Cl)c2)CCC(NC(=O)CCC(=O)NCc2ccccn2)CC1 (centres unmarked) [Example 73, N-[4-(3-chloro-benzyl)-4-dimethylamino-cyclohexyl]-N′-pyridin-2-ylmethyl-succinamide] | 93 | 87 |  | 
11 | COc1ccc(NC(=O)CCC(=O)NC2CCC(Cc3cccc(C)c3)(N(C)C)CC2)cc1 (centres unmarked) [Example 75, N-[4-dimethylamino-4-(3-methyl-benzyl)-cyclohexyl]-N′-(4-methoxy-phenyl)-succinamide] | 97 | 99 |  | 
12 | COc1ccc(N2CCN(C(=O)CCC(=O)NC3CCC(Cc4ccc(C)cc4)(N(C)C)CC3)CC2)cc1 (centres unmarked) [Example 79, N-[4-dimethylamino-4-(4-methyl-benzyl)-cyclohexyl]-4-[4-(4-methoxy-phenyl)-piperazin-1-yl]-4-oxo-butyramide] | 96 | 95 |  | 
13 | CC(CCc1ccccc1)NC(=O)CCC(=O)NC1CCC(Cc2ccc(Cl)cc2)(N(C)C)CC1 (centres unmarked) [Example 83, N-[4-(4-chloro-benzyl)-4-dimethylamino-cyclohexyl]-N′-(1-methyl-3-phenyl-propyl)-succinamide] | 93 | 105 |  | 
14 | CCOC(=O)N1CCN(C(=O)CCC(=O)NC2CCC(Cc3cccc(Cl)c3)(N(C)C)CC2)CC1 (centres unmarked) [Example 84, 4-{3-[4-(3-chloro-benzyl)-4-dimethylamino-cyclohexylcarbamoyl]-propionyl}-piperazin-1-carboxylic acid ethylester] | 95 | 96 |  | 
15 | COc1ccc(CNC(=O)CCC(=O)NC2CCC(Cc3cccc(C)c3)(N(C)C)CC2)cc1 (centres unmarked) [Example 85, N-[4-dimethylamino-4-(3-methyl-benzyl)-cyclohexyl]-N′-(4-methoxy-benzyl)-succinamide] | 94 | 100 |  | 
16 | CC1CN(C(=O)CCC(=O)NC2CCC(Cc3ccc(Cl)cc3)(N(C)C)CC2)CC(C)O1 (centres unmarked) [Example 86, N-[4-(4-chloro-benzyl)-4-dimethylamino-cyclohexyl]-4-(2,6-dimethyl-morpholin-4-yl)-4-oxo-butyramide] | 92 | 76 |  | 

Row | SMILES | inhibition at 10 µM (5HT-uptake) [%] | inhibition at 10 µM (NA-uptake) [%] | 5HT-uptake [10 μM], % inhibition (5HT-uptake) [%] | NA-uptake [10 μM], % inhibition (NA-uptake) [%]
17 | Cc1ccc(CC2(N(C)C)CCC(NC(=O)CCC(=O)N3CC=C(c4ccccc4)CC3)CC2)cc1 (centres unmarked) [Example 87, N-[4-dimethylamino-4-(4-methyl-benzyl)-cyclohexyl]-4-oxo-4-(4-phenyl-3,6-dihydro-2H-pyridin-1-yl)-butyramide] | 96 | 94 |  | 
18 | CN(C)C1(Cc2ccc(Cl)cc2)CCC(NC(=O)CCC(=O)NCCc2cccc(F)c2)CC1 (centres unmarked) [Example 88, N-[4-(4-chloro-benzyl)-4-dimethylamino-cyclohexyl]-N′-[2-(3-fluoro-phenyl)-ethyl]-succinamide] | 97 | 102 |  | 
19 | C=CCOc1ccc(CN2CCN(C(=O)CCC(=O)NC3CCC(Cc4cccc(C)c4)(N(C)C)CC3)CC2)cc1 (centres unmarked) [Example 89, 4-[4-(4-allyloxy-benzyl)-piperazin-1-yl]-N-[4-dimethylamino-4-(3-methyl-benzyl)-cyclohexyl]-4-oxo-butyramide] | 94 | 98 |  | 
20 | COc1cccc(N2CCN(C(=O)CCCC(=O)NC3CCC(Cc4ccccc4)(N(C)C)CC3)CC2)c1 (centres unmarked) [Example 91, 5-[4-(3-methoxy-phenyl)-piperazin-1-yl]-5-oxo-valeric acid (4-benzyl-4-dimethylamino-cyclohexyl)-amide] | 92 | 101 |  | 
21 | CC1CCN(C(=O)CCC(=O)NC2CCC(Cc3cccc(Cl)c3)(N(C)C)CC2)CC1 (centres unmarked) [Example 92, N-[4-(3-chloro-benzyl)-4-dimethylamino-cyclohexyl]-4-(4-methyl-piperidin-1-yl)-4-oxo-butyramide] | 92 | 89 |  | 
22 | CCOP(=O)(Cc1ccc(NC(=O)CCC(=O)NC2CCC(Cc3ccc(Cl)cc3)(N(C)C)CC2)cc1)OCC (centres unmarked) [Example 93, (4-{3-[4-(4-chloro-benzyl)-4-dimethylamino-cyclohexylcarbamoyl]-propionylamino}-benzyl)-phosphonic acid diethylester] | 92 | 75 |  | 
23 | Cc1ccc(CC2(N(C)C)CCC(NC(=O)CCC(=O)N3CCN(c4ccccc4C)CC3)CC2)cc1 (centres unmarked) [Example 94, N-[4-dimethylamino-4-(4-methyl-benzyl)-cyclohexyl]-4-oxo-4-(4-o-tolyl-piperazin-1-yl)-butyramide] | 92 | 86 |  | 
24 | Cc1ccc(CC2(N(C)C)CCC(NC(=O)CCC(=O)N3CCN(c4ccc(Cl)cc4)CC3)CC2)cc1 (centres unmarked) [Example 96, 4-[4-(4-chloro-phenyl)-piperazin-1-yl]-N-[4-dimethylamino-4-(4-methyl-benzyl)-cyclohexyl]-4-oxo-butyramide] | 94 | 87 |  | 
25 | CN(C)C1(Cc2ccc(Cl)cc2)CCC(NC(=O)CCC(=O)NC2CCN(Cc3ccc(C(F)(F)F)cc3)C2)CC1 (centres unmarked) [Example 98, N-[4-(4-chloro-benzyl)-4-dimethylamino-cyclohexyl]-N′-[1-(4-trifluoromethyl-benzyl)-pyrrolidin-3-yl]-succinamide] | 92 | 74 |  | 
26 | CN(C)C1(Cc2cccc(Cl)c2)CCC(NC(=O)CCC(=O)NCCc2c[nH]c3ccccc23)CC1 (centres unmarked) [Example 99, N-[4-(3-chloro-benzyl)-4-dimethylamino-cyclohexyl]-N′-[2-(1H-indol-3-yl)-ethyl]-succinamicle] |  |  | 94 | 99
27 | CN(C)C1(Cc2ccc(Cl)cc2)CCC(NC(=O)CCC(=O)Nc2ccc3c(c2)CCC3)CC1 (centres unmarked) [Example 100, N-[4-(4-chloro-benzyl)-4-dimethylamino-cyclohexyl]-N′-indan-5-yl-succinamide] | 92 | 77 |  | 
28 | Cc1ccc(CC2(N(C)C)CCC(NC(=O)CCC(=O)Nc3ccc(OCc4ccccc4)cc3)CC2)cc1 (centres unmarked) [Example 101, N-(4-benzyloxy-phenyl)-N′-[4-dimethylamino-4-(4-methyl-benzyl)-cyclohexyl]-succinamide] | 94 | 77 |  | 
29 | CCC(C)C(NC(=O)CCC(=O)NC1CCC(Cc2cccc(C)c2)(N(C)C)CC1)C(=O)OC(C)(C)C (centres unmarked) [Example 102, 2-{3-[4-dimethylamino-4-(3-methyl-benzyl)-cyclohexylcarbamoyl]-propionylamino}-3-methyl-valeric acid tert-butyl ester] | 94 | 105 |  | 
30 | Cc1cccc(CC2(N(C)C)CCC(NC(=O)CCC(=O)N3CCC(Cc4ccccc4)CC3)CC2)c1 (centres unmarked) [Example 103, 4-(4-benzyl-piperidin-1-yl)-N-[4-dimethylamino-4-(3-methyl-benzyl)-cyclohexyl]-4-oxo-butyramide] | 94 | 108 |  | 
31 | CN(C)C1(Cc2ccc(Cl)cc2)CCC(NC(=O)CCC(=O)N2CC=C(c3ccc(F)cc3)CC2)CC1 (centres unmarked) [Example 104, N-[4-(4-chloro-benzyl)-4-dimethylamino-cyclohexyl]-4-[4-(4-fluoro-phenyl)-3,6-dihydro-2H-pyridin-1-yl]-4-oxo-butyramide] | 93 | 84 |  | 
